# Experimental data as given in patent publication US6486157B1, “Use of insecticides in pest control” (priority 1998, dated 2002).
# Assays:
# Format in all cases: in vivo
# Heliothis spp. = assay: Plot test on maize cv. KnockOut vs conventional maize, action against Heliothis spp.; settings: natural infestation; for control on the plants of plot (a) (% action): plot (a) maize cv. KnockOut, spray 200, 100, 50, 10, 5, 1 ppm, evaluation 6 days later; for control level, plot (b): plot (b) conventional maize, spray 200, 100, 50, 10, 5, 1 ppm plus same ppm of the endotoxin expressed by KnockOut, 6 days
# Procedure: (§1) A plot (a) planted with maize cv. KnockOut® and an adjacent plot (b) of the same size which is planted with conventional maize, both showing natural infestation with Ostrinia nubilalis, Spodoptera sp or Heliothis, are sprayed with an aqueous emulsion spray mixture comprising 200, 100, 50, 10, 5, 1 ppm of fenoxycarb . Immediately afterwards, plot (b) is treated with an emulsion spray mixture comprising 200, 100, 50, 10, 5, 1 ppm of the endotoxin expressed by KnockOut®. Evaluation takes place 6 days later. The percentage reduction in population (% action) is determined by comparing the number of dead pests on the plants of plot (a) with that on the plants of plot (b).
# as §1, with “pymetrozine.” for “fenoxycarb .”
# (§2) A plot (a) planted with maize cv. KnockOut® and an adjacent plot (b) of the same size which is planted with conventional maize, both showing natural infestation with Ostrinia nubilalis. Spodoptera sp or Heliothis, are sprayed with an aqueous emulsion spray mixture comprising 200, 100, 50, 10, 5, 1ppm of lufenuron. Immediately afterwards, plot (b) is treated with an emulsion spray mixture comprising 200, 100, 50, 10, 5, 1 ppm of the endotoxin expressed by KnockOut®. Evaluation takes place 6 days later. The percentage reduction in population (% action) is determined by comparing the number of dead pests on the plants of plot (a) with that on the plants of plot (b).
# Spodoptera littoralis = assay: Spray test on young transgenic cotton plants, action against Spodoptera littoralis larvae; settings: for control of the tested insects in the non-transgenic plant (% action): non-transgenic cotton, spray mixture of active ingredient and conventional CryIIIA-toxin, each 100, 50, 10, 5, 1 ppm, 3 to 10 days; for control of the tested insects in the transgenic plant (% action): spray 100, 50, 10, 5, 1 ppm, evaluation 3 to 10 days, compared with treated non-transgenic cotton
# From the text: (§3) Young transgenic cotton plants which express the δ-endotoxin CryIIIA are sprayed with an aqueous emulsion spray mixture comprising 100, 50, 10, 5, 1 ppm of profenofos respectively. After the spray coating has dried on, the cotton plants are populated with 10 adult Anthonomus grandis, 10 Spodoptera littora larvae or 10 Heliothis virescens larvae respectively and introduced into a plastic container. Evaluation takes place 3 to 10 days later. The percentage reduction in population, or the percentage reduction in feeding damage (% action), is determined by comparing the number of dead beetles and the feeding damage on the transgenic cotton plants with that of non-transgenic cotton plants which have been treated with an emulsion spray mixture comprising lufenuron and conventional CryIIIA-toxin at a concentration of in each case 100, 50, 10, 5, 1 ppm respectively.
# as §3, with “pymetrozine” for “lufenuron”
# as §3, with “express tho” for “express the”, “δ-endotoxin CryIa (c)” for “δ-endotoxin CryIIIA”, “of fenoxycarb” for “of profenofos”, “comprising fenoxycarb” for “comprising lufenuron”, “and con-ventional” for “and conventional”
# as §3, with “δ-endotoxin CryIa(c)” for “δ-endotoxin CryIIIA”, “of fenoxycarb” for “of profenofos”, “comprising fenoxycarb” for “comprising lufenuron”
# (§4) Young transgenic cotton plants which express the δ-endotoxin CryIa(c) are sprayed with an aqueous emulsion spray mixture comprising 100, 50, 10, 5, 1 ppm of pymetrozine respectively. After the spray coating has dried on, the cotton plants are populated with 10 adult Anthonomus grandis, 10 Spodoptera littora larvae or 10 Heliothis virescens larvae respectively and introduced into a plastic container. Evaluation takes place 3 to 10 days later. […]
# Heliothis virescens = assay: Spray test on young transgenic cotton plants, action against Heliothis virescens larvae; settings: for control of the tested insects in the non-transgenic plant (% action): non-transgenic cotton, spray mixture of active ingredient and conventional CryIIIA-toxin, each 100, 50, 10, 5, 1 ppm, 3 to 10 days; for control of the tested insects in the transgenic plant (% action): spray 100, 50, 10, 5, 1 ppm, evaluation 3 to 10 days, compared with treated non-transgenic cotton
# From the text: as §3
# as §3, with “pymetrozine” for “lufenuron”
# as §3, with “express tho” for “express the”, “δ-endotoxin CryIa (c)” for “δ-endotoxin CryIIIA”, “of fenoxycarb” for “of profenofos”, “comprising fenoxycarb” for “comprising lufenuron”, “and con-ventional” for “and conventional”
# as §3, with “δ-endotoxin CryIa(c)” for “δ-endotoxin CryIIIA”, “of fenoxycarb” for “of profenofos”, “comprising fenoxycarb” for “comprising lufenuron”
# as §4
# Spodoptera spp. = assay: Plot test on maize cv. KnockOut vs conventional maize, action against Spodoptera spp.; settings: natural infestation; for control on the plants of plot (a) (% action): plot (a) maize cv. KnockOut, spray 200, 100, 50, 10, 5, 1 ppm, evaluation 6 days later; for control level, plot (b): plot (b) conventional maize, spray 200, 100, 50, 10, 5, 1 ppm plus same ppm of the endotoxin expressed by KnockOut, 6 days
# Procedure: as §1
# as §1, with “pymetrozine.” for “fenoxycarb .”
# as §2
# Anthonomus grandis = assay: Spray test on young transgenic cotton plants, action against Anthonomus grandis adults; settings: for control of the tested insects in the non-transgenic plant (% action): non-transgenic cotton, spray mixture of active ingredient and conventional CryIIIA-toxin, each 100, 50, 10, 5, 1 ppm, 3 to 10 days; for control of the tested insects in the transgenic plant (% action): spray 100, 50, 10, 5, 1 ppm, evaluation 3 to 10 days, compared with treated non-transgenic cotton
# From the text: as §3
# as §3, with “pymetrozine” for “lufenuron”
# as §3, with “express tho” for “express the”, “δ-endotoxin CryIa (c)” for “δ-endotoxin CryIIIA”, “of fenoxycarb” for “of profenofos”, “comprising fenoxycarb” for “comprising lufenuron”, “and con-ventional” for “and conventional”
# as §3, with “δ-endotoxin CryIa(c)” for “δ-endotoxin CryIIIA”, “of fenoxycarb” for “of profenofos”, “comprising fenoxycarb” for “comprising lufenuron”
# as §4
# Ostrinia nubilalis = assay: Plot test on maize cv. KnockOut vs conventional maize, action against Ostrinia nubilalis; settings: natural infestation; for control on the plants of plot (a) (% action): plot (a) maize cv. KnockOut, spray 200, 100, 50, 10, 5, 1 ppm, evaluation 6 days later; for control level, plot (b): plot (b) conventional maize, spray 200, 100, 50, 10, 5, 1 ppm plus same ppm of the endotoxin expressed by KnockOut, 6 days
# Procedure: as §1
# as §1, with “pymetrozine.” for “fenoxycarb .”
# as §2
# [1] = system: Frankliniella occidentalis; assay: Transgenic vs conventional cotton seedlings, action against Frankliniella occidentalis; settings: 20° C.; for control on the plants of plot (a) (% action): spray 400 ppm, evaluated after 3 and 6 days; for control level, plot (b): plot (b) conventional cotton seedlings, 3 and 6 days
# Procedure: (§5) Cotton seedlings expressing the δ-endotoxin Crylila on a plot (a) and conventional cotton seedlings on a plot (b) are infected with Frankliniella occidentalis and subsequently sprayed with a spray mixture comprising 400 ppm lufenuron. Immediately afterwards, plot (b) is treated with an emulsion spray mixture comprising 400 ppm of the S-endotoxin CrylIla. The seedlings of plot (a) and (b) are then incubated at 20° C. The test is evaluated after 3 and 6 days.
# (§6) The percentage reduction in population (% action) is determined by comparing the number of dead pests on the plants of plot (a) with that on the plants of plot (b).
# as §5, with “CryIa(c)” for “Crylila”, “δ-endotoxin CryIa(c).” for “S-endotoxin CrylIla.”
# Aphis gossypii = assay: Transgenic vs conventional cotton seedlings, action against Aphis gossypii; settings: 20° C.; for control on the plants of plot (a) (% action): spray 400 ppm, evaluated after 3 and 6 days; for control level, plot (b): plot (b) conventional cotton seedlings, 3 and 6 days
# Procedure: (§7) Cotton seedlings on a plot (a) expressing the δ-endotoxin CryllIa on a plot (a) and conven-tional cotton seedlings on a plot (b) are infected with Aphis gossypi and subsequently sprayed with a spray mixture comprising 400 ppm pymetrozine. immediately afterwards, plot (b) is treated with an emulsion spray mixture comprising 400 ppm of the δ-endotoxin Crylila. The seedlings of plot (a) and (b) are then incubated at 20° C. The test is evaluated after 3 and 6 days.
# as §6
# as §7, with “seedlings” for “seedlings on a plot (a)”, “CryIA(c)” for “CryllIa”, “conventional” for “conven-tional”, “gossypii” for “gossypi”, “Immediately” for “immediately”, “[…].” for “Crylila.”
# [2] = transgenic cotton expressing δ-endotoxin CryIa(c)
# [3] = plot (a) cotton seedlings expressing δ-endotoxin CryIa(c)
# [4] = transgenic cotton expressing δ-endotoxin CryIIIA
smiles,measurement,setting,value
"CCOC(=O)NCCOc1ccc(Oc2ccccc2)cc1 [fenoxycarb, Ethyl 2-(4-Phenoxyphenoxy)ethylcarbamat]",control on the plants of plot (a) (% action),Heliothis spp.,Improved control
same,"control level, plot (b)",Heliothis spp.,≤ 60%
same,control of the tested insects in the non-transgenic plant (% action),Spodoptera littoralis,insufficient
same,control of the tested insects in the transgenic plant (% action),Spodoptera littoralis; [2],superior
same,control of the tested insects in the non-transgenic plant (% action),Heliothis virescens,insufficient
same,control of the tested insects in the transgenic plant (% action),Heliothis virescens; [2],superior
same,control on the plants of plot (a) (% action),Spodoptera spp.,Improved control
same,"control level, plot (b)",Spodoptera spp.,≤ 60%
same,control of the tested insects in the non-transgenic plant (% action),Anthonomus grandis,insufficient
same,control of the tested insects in the transgenic plant (% action),Anthonomus grandis; [2],superior
same,control on the plants of plot (a) (% action),Ostrinia nubilalis,Improved control
same,"control level, plot (b)",Ostrinia nubilalis,≤ 60%
O=C(NC(=O)c1c(F)cccc1F)Nc1cc(Cl)c(OC(F)(F)C(F)C(F)(F)F)cc1Cl (centres unmarked) [lufenuron],control on the plants of plot (a) (% action),[1]; [3],Improved control
same,control on the plants of plot (a) (% action),[1]; plot (a) cotton seedlings expressing δ-endotoxin Crylila,Improved control
same,"control level, plot (b)",[1]; spray 400 ppm plus 400 ppm of endotoxin CrylIla,≤ 60%
same,"control level, plot (b)",[1]; spray 400 ppm plus 400 ppm of δ-endotoxin CryIa(c),≤ 60%
same,control on the plants of plot (a) (% action),Heliothis spp.,Improved control
same,"control level, plot (b)",Heliothis spp.,≤ 60%
same,control of the tested insects in the non-transgenic plant (% action),Spodoptera littoralis,insufficient
same,control of the tested insects in the transgenic plant (% action),Spodoptera littoralis; [2],superior
same,control of the tested insects in the non-transgenic plant (% action),Heliothis virescens,insufficient
same,control of the tested insects in the transgenic plant (% action),Heliothis virescens; [2],superior
same,control on the plants of plot (a) (% action),Spodoptera spp.,Improved control
same,"control level, plot (b)",Spodoptera spp.,≤ 60%
same,control of the tested insects in the non-transgenic plant (% action),Anthonomus grandis,insufficient
same,control of the tested insects in the transgenic plant (% action),Anthonomus grandis; [2],superior
same,control on the plants of plot (a) (% action),Ostrinia nubilalis,Improved control
same,"control level, plot (b)",Ostrinia nubilalis,≤ 60%
"CCCSP(=O)(OCC)Oc1ccc(Br)cc1Cl (centres unmarked) [profenofos, O-4-Brom-2-chlorphenyl O-Ethyl S-Propyl Phosphorothioat]",control of the tested insects in the transgenic plant (% action),Spodoptera littoralis; [4],superior
same,control of the tested insects in the transgenic plant (% action),Heliothis virescens; [4],superior
same,control of the tested insects in the transgenic plant (% action),Anthonomus grandis; [4],superior
"CC1=NNC(=O)N(N=Cc2cccnc2)C1 [pymetrozine, 2,3,4,5-Tetrahydro-3-oxo-4-[(pyridin-3-yl)-methylenamino]-6-methyl-1,2,4-triazin]",control on the plants of plot (a) (% action),Heliothis spp.,Improved control
same,"control level, plot (b)",Heliothis spp.,≤ 60%
same,control of the tested insects in the non-transgenic plant (% action),Spodoptera littoralis,insufficient
same,control of the tested insects in the transgenic plant (% action),Spodoptera littoralis; [2],superior
same,control of the tested insects in the non-transgenic plant (% action),Heliothis virescens,insufficient
same,control of the tested insects in the transgenic plant (% action),Heliothis virescens; [2],superior
same,control on the plants of plot (a) (% action),Spodoptera spp.,Improved control
same,"control level, plot (b)",Spodoptera spp.,≤ 60%
same,control of the tested insects in the non-transgenic plant (% action),Anthonomus grandis,insufficient
same,control of the tested insects in the transgenic plant (% action),Anthonomus grandis; [2],superior
same,control on the plants of plot (a) (% action),Aphis gossypii; [3],Improved control
same,control on the plants of plot (a) (% action),Aphis gossypii; plot (a) cotton seedlings expressing δ-endotoxin CryllIa,Improved control
same,"control level, plot (b)",Aphis gossypii; spray 400 ppm plus 400 ppm of δ-endotoxin Crylila,≤ 60%
same,"control level, plot (b)",Aphis gossypii; spray 400 ppm plus 400 ppm of δ-endotoxin Crylla,≤ 60%
same,control on the plants of plot (a) (% action),Ostrinia nubilalis,Improved control
same,"control level, plot (b)",Ostrinia nubilalis,≤ 60%
